Tested on: RNB12 specific T cells
Test: Identification of apitopes in the RNB12 region (fresh vs fixed APCs, proliferation and IFN gamma)
Assay type: cell-based, human
Conditions: RNB12 specific TCL, fresh or fixed BM14 cells (FIG. 18)
Protocol: Peripheral blood monocytes (PBMC) from healthy donors or Graves' disease patients were isolated (Histopaque-1077, Sigma-Aldrich), and frozen in aliquots. At day 0, cells were thawed and 106 PBMCs/ml cultured with 20 ug/ml peptide in supplemented (10 mM HEPES, 50 U/ml Penicillin/Streptomycin and 4 mM L-Glutamine (Lonza)) RPMI 1640 (Lonza) with 5% AB serum (Sigma Aldrich) added in a 6 well plate (Greiner Bio-one) and incubated in 37 C and 5% CO2. After 7 days rhIL-2 (R&D Systems) is added to a final concentration of 20 U/ml. […]
At day 24 the cells were harvested, washed and 2×104 cultured in a 96 well round-bottom plate (Cellstar, Greiner Bio One) with […] irradiated autologous PBMCs and VAVY/BM14/MGAR human cell lines expressing human MHC cl II molecules (International Histocompatibility Working group, Seattle, US) in supplemented RPMI+5% AB serum in presence of different antigens (peptides, protein) in concentration from 5-50 ug/ml. […] After the plates been frozen the cells were harvested and read with β counter (Wallac 1450 Microbeta Trilux) to assess proliferation. […]
The supernatants from TCL cultures were assessed for IFN gamma content by use of the Human IFN-gamma Duoset kit, R&D Systems following the manufacturer's instruction. Optical density was measured at 450 nm (Tecan Benelux)

With KKKTLKLYNNGFTSVQGYKKK [RNB12-KKK] the apitope status was “confirmed to be apitopes”.

Source: patent US10730919B2, “Peptides” (APITOPE INTERNATIONAL NV, priority 2013, dated 2020)
